Data on 43 compounds can be found in ChEMBL document CHEMBL1159103, “Discovery of biaryl inhibitors of H+/K+ ATPase” (Bioorg Med Chem Lett, 2010).

The nature of the test: Inhibition of H(+)/K(+) ATPase.
The pIC50 is the IC50 on a negative log10 scale, so that one unit is a factor of ten. A lower pIC50 goes with a large IC50. Turning to `Cc1cccc(C)c1CNc1cccc(-c2nc(C)c(C)[nH]2)c1`, the pIC50 amounted to 4.3. The same measure for `Cc1cccc(C)c1-c1ccc(O)c(-c2nc(C)c(C)[nH]2)c1`: 5.7; for `Cc1cccc(C)c1-c1cc(-c2nc(C)c(C)[nH]2)co1`: under 4; for `Cc1nc(-c2cccc(-c3ccccc3)c2)[nH]c1C`: 4.7.

For `CNCc1cccc(-c2c(C)cccc2C)c1`, the pIC50 is listed as 4.3. With `Cc1cccc(C)c1-c1cccc(-c2nc(C)c(C)[nH]2)c1`, the pIC50 is 5.2.

The compound `CCc1cccc(CC)c1-c1cccc(-c2nc(C)c(C)[nH]2)c1` returned a pIC50 of 5.1. This pIC50 and that of the compound before are within 0.2 log units of each other. The compound `Cc1cccc(C)c1Nc1cccc(-c2nc(C)c(C)[nH]2)c1` displayed a pIC50 of 4.9. The same measure for `Cc1cccc(C)c1-c1ccc(-c2nc(C)c(C)[nH]2)cc1`: 4.4; for `Cc1cccc(C)c1-c1cccc(-c2ncc[nH]2)c1`: 4.5. For `Cc1ccc(-c2nc(C)c(C)[nH]2)cc1-c1c(C)cccc1C` the value was 4.9; for `Cc1cccc(C)c1-c1cccc(-c2nc(C)c(C)n2C)c1`, 4.6. For `CCCn1ccnc1-c1cccc(-c2c(C)cccc2C)c1` the value was 4.3. As to `Cc1cccc(C)c1-c1cccc(-c2cn(C)c(C)n2)c1`, the pIC50 came out at 4.8. The same measure for `Cc1cccc(C)c1-c1cccc(-c2nccn2C)c1`: 5.2; for `Cc1nc(-c2ccccc2-c2ccccc2)[nH]c1C`: 4.2. Compound `COc1cc(-c2c(C)cccc2C)cc(-c2nc(C)c(C)[nH]2)c1OC` displayed a pIC50 of 4.6.

In the case of `Cc1cccc(C)c1-c1cccc(-c2nc3ccccc3[nH]2)c1`, the pIC50 amounted to 4.4. `CCCn1c(-c2cc(-c3c(C)cccc3C)ccc2OC)nc(C)c1C`: the pIC50 is recorded as 4.9. For `Cc1ccccc1-c1cccc(-c2nc(C)c(C)[nH]2)c1` the value was 5.1; for `Cc1cccc(C)c1-c1ccc(OCC(N)=O)c(-c2nc(C)c(C)[nH]2)c1`, 5.7; for `COc1c(-c2c(C)cccc2C)cc2c(c1-c1nc(C)c(C)[nH]1)OCC2`, 5.5. For `Cc1cccc(C)c1-c1cccc(-c2cncn2C)c1` the value was 4.4. The compound `COc1ncccc1-c1cc(-c2nc(C)c(C)[nH]2)cc(-c2c(C)cccc2C)c1` had a pIC50 of 4.8. For `Cc1cccc(C)c1-c1ccc(-c2nc(C)c(C)[nH]2)s1` the value was 4.1. For `COc1c(-c2nc(C)c(C)[nH]2)cccc1-c1c(C)cccc1C` the value was under 4. For `Cc1cccc(C)c1-c1cc(-c2nc(C)c(C)[nH]2)cs1` the value was 4.5; for `Cc1nc(-c2cccc(CCc3ccccc3)c2)[nH]c1C`, 4.3; for `COc1ccc(-c2c(C)cccc2C)cc1-c1nc(C)c(C)[nH]1`, 6.1. As to `COc1ccc(-c2nc(C)c(C)[nH]2)cc1-c1c(C)cccc1C`, the pIC50 is 4.9.

The compound `Cc1cccc(C)c1-c1cccc(N2CCN(C)CC2)c1` yielded a negative-log IC50 (pIC50) of 4.4. The same measure for `COc1c(-c2c(C)cccc2C)cc2ccoc2c1-c1nc(C)c(C)[nH]1`: 5.4.

In turn, `CCOc1ccc(-c2c(C)cccc2C)cc1-c1nc(C)c(C)[nH]1` gave a pIC50 of 5.6. The same measure for `Cc1cccc(C)c1-c1ccc(OC(F)F)c(-c2nc(C)c(C)[nH]2)c1`: 5; for `COC(=O)COc1ccc(-c2c(C)cccc2C)cc1-c1nc(C)c(C)[nH]1`: 5.9.

Turning to `Cc1cccc(C)c1-c1cccc(-c2cc(N)ccn2)c1`, the pIC50 was found to be 4.5. For `Cc1cccc(C)c1-c1ccc(OCc2ccccc2)c(-c2nc(C)c(C)[nH]2)c1` the value was 5.3; for `Cc1nc(-c2cccc(C(=O)Nc3ccccc3)c2)[nH]c1C`, 4. The same measure for `CCc1nc(-c2cccc(-c3c(C)cccc3C)c2)[nH]c1CC`: 4.8; for `Cc1cccc(C)c1-c1ccc(-c2nc(C)c(C)[nH]2)o1`: 4.9.

Regarding `Cc1cscc1-c1cccc(-c2nc(C)c(C)[nH]2)c1`, the pIC50 was found to be 4.8. The same measure for `Cc1cccc(C)c1-c1cc(-c2nc(C)c(C)[nH]2)ccc1-c1ccncc1`: under 4; for `Cc1nc(-c2cccc(/C=C/c3ccccc3)c2)[nH]c1C`: 4.4.
